In patent US6500455B1, “Tolperison-containing, pharmaceutical preparation for oral administration” (Sanochemia Pharmazeutika, priority 1999, dated 2002):

Assays:
[1] = effectiveness of the Tolperison isomers; details: comparison of (−) isomer, (+) isomer and racemic mixtures
[2] = blood (of humans); active ingredient present as 50/50 racemate; cited from earlier work

## Cc1ccc(C(=O)C(C)CN2CCCCC2)cc1 (single isomer, unassigned; (+)) [(+) isomer]
[1]
  effectiveness of the isomers compared with each other: almost identically effective
[2]
  proportion of the isomer present in the blood: ≤ 10%

## Cc1ccc(C(=O)C(C)CN2CCCCC2)cc1 (single isomer, unassigned; (-)) [(−) isomer, 2,4′-dimethyl-3-piperidonopropriophenone]
[1]
  effectiveness of the isomers compared with each other: almost identically effective
[2]
  proportion of the isomer present in the blood: up to 90%
